Source: PubChem BioAssay AID296 (DTP/NCI, 2004)
Where “and” joins values, the source holds several entries; their conditions need not be identical. Equal entries are not always repeated. Records with an inconclusive call do not appear.

Tested on: MX-1 breast xenograft, nude mice, tumor weight T/C
Assay: NCI In Vivo Anticancer Drug Screen. Data for tumor model Human Mammary Carcinoma MX-1 Xenograft (intrarenal inoculation) in NU/NU Swiss (nude) mice
Settings: endpoint: mean tumor weight change, higher = larger tumour
Method in brief: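 Compound dosed to mice with transplantable tumor; vehicle group as control. Endpoint survival or tumour size, reported as T/C.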

[1] = dose: 150.0 mg/kg/injection, schedule: Q04DX003 (sc), vehicle: saline with Tween-80
[2] = dose: 300.0 mg/kg/injection, schedule: Q04DX003 (sc), vehicle: saline with Tween-80
[3] = dose: 600.0 mg/kg/injection, schedule: Q04DX003 (sc), vehicle: saline with Tween-80
[4] = dose: 1200.0 mg/kg/injection, schedule: Q04DX003 (sc), vehicle: saline with Tween-80
[5] = dose: 100.0 mg/kg/injection, schedule: Q04DX003 (sc), vehicle: saline with Tween-80

COc1ccc(OC)c(/C=C/c2ccnc3ccccc23)c1
T/C [1]: 96 % of control | T/C [2]: 91 % of control | T/C [3]: 96 % of control | T/C [4]: 96 % of control

C=C(C)C(=NC(C)(C)C)Nc1ccccc1
T/C [5]: 101 % of control

O=C(NO)c1ccc(O)c(O)c1
T/C (dose: 200.0 mg/kg/injection, schedule: Q04DX003 (sc), vehicle: other): 26 % of control | T/C (dose: 200.0 mg/kg/injection, schedule: Q04DX003 (sc), vehicle: water): 104 % of control | T/C (dose: 400.0 mg/kg/injection, schedule: Q04DX003 (sc), vehicle: other): 60 % of control | T/C (dose: 400.0 mg/kg/injection, schedule: Q04DX003 (sc), vehicle: water): 87 % of control | T/C (dose: 800.0 mg/kg/injection, schedule: Q04DX003 (sc), vehicle: other): 18 % of control | T/C (dose: 800.0 mg/kg/injection, schedule: Q04DX003 (sc), vehicle: water): 78 % of control | T/C (dose: 1200.0 mg/kg/injection, schedule: Q04DX003 (sc), vehicle: distilled water + Tween-80): 77 % of control

CC(=O)Oc1ccccc1O
T/C (dose: 75.0 mg/kg/injection, schedule: Q04DX003 (sc), vehicle: saline + Tween-80 + alcohol): 89 % of control | T/C (dose: 150.0 mg/kg/injection, schedule: Q04DX003 (sc), vehicle: saline + Tween-80 + alcohol): 117 % of control | T/C (dose: 600.0 mg/kg/injection, schedule: Q04DX003 (sc), vehicle: saline + Tween-80 + alcohol): 68 % of control

Cc1c(CNc2ccc(C(=O)NC(CC(=O)O)C(=O)O)cc2)ccc2nc(N)nc(N)c12 (stereo not given)
T/C (dose: 6.0 mg/kg/injection, schedule: Q04DX003 (sc), vehicle: saline with Tween-80): 29 % of control | T/C (dose: 48.0 mg/kg/injection, schedule: Q04DX003 (sc), vehicle: saline with Tween-80): 13 % of control and 33 % of control | T/C (dose: 72.0 mg/kg/injection, schedule: Q04DX003 (sc), vehicle: saline with Tween-80): 18 % of control and 28 % of control

Cc1c2cc[n+](C)cc2c(C)c2c1[nH]c1ccc(O)cc12
T/C (dose: 1.5 mg/kg/injection, schedule: Q04DX003 (sc), vehicle: water): 167 % of control | T/C (dose: 6.0 mg/kg/injection, schedule: Q04DX003 (sc), vehicle: water): 91 % of control

CC(=O)Nc1ccc(S(=O)(=O)CO)cc1
T/C [2]: 121 % of control | T/C [3]: 85 % of control

COC(=O)Nc1cccc(-c2nc3ccc(NC(=O)OC)cc3c(=O)n2-c2ccccc2)c1
T/C (dose: 25.0 mg/kg/injection, schedule: Q01DX010 (sc), vehicle: Klucel (hydroxypropylcellulose) (HPC)): 87 % of control | T/C (dose: 100.0 mg/kg/injection, schedule: Q01DX010 (sc), vehicle: Klucel (hydroxypropylcellulose) (HPC)): 33 % of control | T/C (dose: 400.0 mg/kg/injection, schedule: Q01DX010 (sc), vehicle: Klucel (hydroxypropylcellulose) (HPC)): 123 % of control

C=C(Cl)C(=NC(C)(C)C)Nc1ccccc1C
T/C (dose: 75.0 mg/kg/injection, schedule: Q04DX003 (sc), vehicle: Klucel (hydroxypropylcellulose) (HPC)): 96 % of control

C/C=C/c1cc2c(c(=O)o1)C(=O)[C@@H](O)[C@H](C)O2
T/C (dose: 50.0 mg/kg/injection, schedule: Q04DX003 (sc), vehicle: saline with Tween-80): 114 % of control | T/C [5]: 93 % of control | T/C (dose: 200.0 mg/kg/injection, schedule: Q04DX003 (sc), vehicle: saline with Tween-80): 101 % of control

N=C(N)Sc1ccccn1
T/C (dose: 25.0 mg/kg/injection, schedule: Q01DX010 (sc), vehicle: saline): 182 % of control

COc1cccc(C2NC(=O)c3c(n[nH]c3N)S2)c1O (stereo not given)
T/C [1]: 50 % of control | T/C [2]: 62 % of control | T/C [3]: 77 % of control | T/C [4]: 117 % of control

CCN(CC)CCNc1ccc(C)c2sc3ccccc3c(=O)c12
T/C (dose: 50.0 mg/kg/injection, schedule: Q01DX010 (sc), vehicle: saline): 79 % of control | T/C (dose: 100.0 mg/kg/injection, schedule: Q01DX010 (sc), vehicle: saline): 53 % of control

O=c1ncccn1[C@@H]1O[C@H](CO)[C@H](O)C1O (stereo not given in full)
T/C (dose: 150.0 mg/kg/injection, schedule: Q04DX003 (sc), vehicle: saline): 114 % of control | T/C (dose: 300.0 mg/kg/injection, schedule: Q04DX003 (sc), vehicle: saline): 156 % of control | T/C (dose: 600.0 mg/kg/injection, schedule: Q04DX003 (sc), vehicle: saline): 160 % of control | T/C (dose: 1200.0 mg/kg/injection, schedule: Q04DX003 (sc), vehicle: saline): 108 % of control
